Reference: US20020090619A1, “Methods for identifying mitochondrial divalent cation transporters” (priority 2000, published 2002)

What was measured:
[1] = test system: isolated yeast mitochondria; test: Ca2+ transport in isolated yeast mitochondria expressing aequorin (luminescence); assay type: biochemical, Saccharomyces cerevisiae; conditions: for Rate of increase in matrix Ca^2+ concentration / % of Control: external free Ca^2+ 0.8 μM, agent 1 μM; for Rate of increase in matrix Ca^2+ concentration: triplicate; for % of Control: rate of increase in matrix Ca^2+
Experimental: For preculture, the transformant was inoculated into 50 ml of SC-U plus 2% glucose, and incubated in an air shaker at 180 rpm and 30° C. At 24 hr, the preculture was transferred to 500 ml of a medium containing 1% yeast extract, 2% peptone, 2% lactate, 1% galactose, 0.012% adenine, pH 5 w/NaOH, and growth was continued under conditions which were otherwise the same. Cells were harvested after an additional 24 hr, spheroplasts were prepared using zymolyase, and mitochondria were isolated by the method of Daum et al. (1982) as previously described (Jung et al., 1997). The final pellet was resuspended at ˜20 mg protein/ml in 0.6 M mannitol, 20 mM HEPES (K^+ salt, pH 6.8). Apoaequorin in the intact or disrupted mitochondria was reconstituted by incubation with coelenterazine as described above for cells.
For most experiments, the mitochondria were present at 0.4 mg protein/ml in a standard medium that contained 0.3 M KCl, 20 mM HEPES, (K^+ salt, pH 7.10), 10 mM KH2PO4, 2 mM EGTA, and 2 mM MgCl2. Other additions are described in greater detail below. Ca^2+ buffers were formed by adding various amounts of CaCl2 to this EGTA containing medium. The free Ca^2+ concentrations which resulted were calculated using a computer program (Brooks et al., 1992 Anal. Biochem. 201:119).
Luminescence measurements were carried out in 6×50 mm culture tubes, using a total volume of 0.3 ml, and were started by injection of 5-20 μl of mitochondria or cells. A SAI model 3000 integrating photometer was employed, with AJD sampling at 0.4 seconds intervals driven by Asyst software. Values were transformed into corresponding Ca^2+ concentrations by computer assisted calculations based upon published calibration methods (Allen et al., 1977 Science 195:996; Brini et al., 1995 J. Biol. Chem. 270:9896). For each value, the ratio of observed luminescence (L) to the potential luminescence remaining (Lmax) was calculated, and compared to a calibration curve which relates this ratio to the free Ca^2+ concentration. Thus, complete calibrated progress curves were generated. The total luminescence available initially (Ltotal) must be known and was determined in separate experiments, wherein a saturating Ca^2+ concentration (20 μM) is employed to discharge the aequorin completely. This value allows Lmax to be calculated at any time, as Ltotal minus the sum of luminescence that already occurred.
The calibration data were obtained at an ionic strength of 335 mM and in the presence of 1 mM Mg^2+, to mimic conditions in the mitochondrial matrix, because both factors influence the affinity of aequorin for Ca2+ (Cobbold et al., 1987 Biochem. J. 248:313). Luminescence values were corrected for low background values that are obtained when Ca^2+ is absent before conducting further calculations.

intact yeast = test: Aequorin luminescence in intact yeast cells expressing mitochondrially targeted aequorin; assay type: cell-based, Saccharomyces cerevisiae; conditions: intact cells, FIG. 19B
Experimental: Yeast cells (strain X4003-5B; leu2, ade1, his4, met2, ura3, trp5, gal1) obtained from the Yeast Genetic Stock Center (Berkeley, Calif.) were transformed with the pYES2 plasmid, encoding the human mitochondrially targeted apoaequorin fragment, using the lithium acetate method (Sambrook et al., 1989), and INVSc1 cells were transformed with the pGK plasmid encoding the yeast mitochondrially targeted apoaequorin fragment. Selection was carried out on plates prepared with synthetic complete medium minus uracil (SC-U) (Sherman, 1991 Meths. Enzymol. 194:3). Transformed colonies were cultured in a small volume of SC-U and assayed for aequorin activity in vitro as described by Nakajima et al. (1991 Proc. Nat. Acad. Sci. USA 88:6878). Briefly, the cells were harvested by centrifugation, resuspended in lysis buffer (50 mM Tris, 2 mM EDTA, 0.5 mM PMSF, pH 8 w/NaOH), disrupted by vortexing with glass beads, and then treated with 0.1% Triton X-100 to release apoaequorin from the mitochondria. Following centrifugation, 200 μl aliquots of the supernatants were incubated with coelenterazine (2.5 μM) and 2-mercaptoethanol (2 μl), for ˜3 hr while standing on ice, to form the luminescent aequorin from its apoprotein. The coelenterazine cofactor is highly hydrophobic and readily permeates yeast cell membranes (Nakajima et al., 1991) such that reconstitution was conducted without disrupting the cells in some cases. 2-mercaptoethanol was omitted when intact cells were employed. A transformant which yielded high luminescence (named X4003-5B-AEQmito1) was selected for further characterization.
For preculture, the transformant was inoculated into 50 ml of SC-U plus 2% glucose, and incubated in an air shaker at 180 rpm and 30° C. At 24 hr, the preculture was transferred to 500 ml of a medium containing 1% yeast extract, 2% peptone, 2% lactate, 1% galactose, 0.012% adenine, pH 5 w/NaOH, and growth was continued under conditions which were otherwise the same. […]
Luminescence measurements were carried out in 6×50 mm culture tubes, using a total volume of 0.3 ml, and were started by injection of 5-20 μl of mitochondria or cells. […] For each value, the ratio of observed luminescence (L) to the potential luminescence remaining (Lmax) was calculated, and compared to a calibration curve which relates this ratio to the free Ca^2+ concentration. […] The total luminescence available initially (Ltotal) must be known and was determined in separate experiments, wherein a saturating Ca^2+ concentration (20 μM) is employed to discharge the aequorin completely. This value allows Lmax to be calculated at any time, as Ltotal minus the sum of luminescence that already occurred. […]

yeast mitochondria = test: Membrane potential ΔΨ of isolated yeast mitochondria (safranin O); assay type: biochemical, Saccharomyces cerevisiae; conditions: for effect on the depression of ΔΨ produced by ETH 129 plus Ca2+: 60 μM CaCl2, 3.6 μM ETH 129
Experimental: The yeast strain W303-1A (Saccharomyces cerevisiae) was grown aerobically at 30° C. in a medium containing 2% lactate, 1% yeast extract, 2% peptone, 0.05% dextrose, and 0.01% adenine at pH 5.0, and cells were harvested during the logarithmic phase (A600=1.8−2.2). Mitochondria were isolated from spheroplasts as previously described (Jung et al., 1997 J. Biol. Chem. 272:21104), except that 0.6 M sucrose was used in the homogenization medium instead of 0.6 M mannitol (Daum et al., 1982 J. Biol. Chem. 257:13028). The resulting preparations were maintained on ice and were suspended in 0.6 M mannitol 20 mM HEPES (K+) (pH 6.8), containing 0.75 mg/ml BSA and 0.1 mM EGTA. Protein concentration was determined by a reduced volume Biuret method in which 50 μl of the final preparation were solubilized by adding an equal volume of 10% deoxycholate (Na+), with 0.4 ml of Biuret reagent added to the resulting mixture. BSA was employed as the standard.
Unless otherwise noted, mitochondria were incubated at 1 mg protein/ml and at approximately 25° C. in a medium that contained 0.6 M mannitol, 10 mM Pi (K+), 10 mM Hepes (TEA+), pH 7.2, plus 1 mM ethanol as an oxidizable substrate. Compounds having a low solubility in water were added from stock solutions prepared in methanol or DMSO. Ca2+ transport and membrane potential were monitored using the indicating dyes antipyrylazo III (ΔA720-790) and safranin O (ΔA511-533), respectively (Akerman et al., 1976 FEBS Lett. 68:191; Scarpa et al., 1978 Biochem. 17:1378). An SLM Aminco DW-2C spectrophotometer operated in the dual wavelength mode was employed for these purposes. The same instrument, operated in split beam mode, was used to monitor mitochondrial swelling as a decrease in apparent absorbance of mitochondrial suspensions at 540 nm. Oxygen consumption data were obtained using a Clark-type electrode in parallel experiments. Atomic absorption spectroscopy was utilized to monitor the transport of other cations by yeast mitochondria. Briefly, samples were taken at appropriate times and the mitochondria were rapidly sedimented in a microcentrifuge. After carefully removing supernatants, the pellets were solubilized with 2 N percholoric acid (overnight) and centrifuged a second time. The resulting supernatants were diluted with an appropriate volume of distilled water and the concentration of the cation in question was subsequently determined.

[2] = ETH 129 mediated cation transport into Quin-2 loaded POPC vesicles; assay type: biochemical; conditions: 1.0 mM CaCl2, no Val, FIG. 5
Experimental: Unilamellar vesicles loaded with Quin-2 were prepared from 1-palmitoyl-2-oleoyl-sn-glycerophosphatidylcholine (POPC) by freeze-thaw extrusion (Erdahl et al., 1994 Biophys. J. 66:1678; Erdahl et al., 1995 Biophys. J. 69:2350). The formation medium contained 5 mM Quin-2 (K+), 10 mM Hepes (K+), pH 7.00, and 100 mM KCl. A high internal K+ concentration was sought to allow the generation of membrane potentials of varying magnitude (see below). The preparations obtained were applied to Sephadex™ G-50 mini-columns (Pharmacia, Piscataway N.J.) and eluted by low speed centrifugation (Fry et al., 1978 Anal. Biochem. 90:809), to replace the external medium with a 10 mM Hepes buffer (Na+), pH 7.00 (Erdahl et al., 1994 Biophys. J. 66:1678; Erdahl et al., 1995 Biophys. J. 69:2350). The nominal concentration of POPC in final preparations was determined as lipid phosphorus (Bartlett, 1959 J Biol. Chem. 234:466) and was near 80 mM. The average diameter of these vesicles was 71 nm as determined by freeze-fracture electron microscopy (Chapman et al., 1990 Chem. Phys. Lipids 55:73). They contained entrapped K+ at approximately 125 mM, as determined by atomic absorption spectroscopy, and Quin-2 at approximately 6 mM. The latter value was determined by titrating lysed vesicles with a standard solution of CaCl2 and was about one third of the expected value (Erdahl et al., 1995 Bipohys. J. 69:3250). The high solute level in the formation medium reduced the efficiency of Quin-2 entrapment by reducing the effectiveness of a freeze-thaw driven solute concentrating mechanism that normally elevates the internal concentrations of solutes, relative to the external medium (Chapman et al., 1990 Chem. Phys. Lipids 55:73; Chapman et al., 1990 Chem. Phys. Lipids 60:201).
POPC vesicles containing Quin-2 were utilized at a nominal phospholipid concentration of 1.0 mM, and at 25° C. The external medium contained polyvalent cation salts as described below, 100 mM NaCl, or mixtures of NaCl and KCl totaling […], and 10 mM Hepes, pH 7.00, unless otherwise noted. The medium pH was adjusted with NaOH that had been passed over Chelex 100 columns to remove contaminating cations (Erdahl et al., 1994 Biophys. J. 66:1678). In most cases an inside negative membrane electrical potential was present during the experiments. This was generated by the presence of 0.5 μM valinomycin (Val), which transports K+ out of the vesicles electrogenically (Erdahl et al., 1994 Biophys. J. 66:1678). The magnitude of the potential was controlled by varying the concentration ratio of Na+ to K+ in the external medium. A TPP+electrode was used to measure the potential (Broekemeier et al, 1998 Biochem. 37:13059), and thereby to verify that the calculated values were obtained. For these purposes the incubation medium contained 2.0 μM TPP.Cl and the entrapped volume was taken to be 2.02 μl/ml at a nominal POPC concentration of 1.0 mM (Chapman et al., 1990 Chem. Phys. Lipids 55:73).
Val was omitted when an imposed membrane potential was not desired, or in some cases 5 μM of the protonophore carbonyl cyanide m-chlorophenylhydrazone (CCP) was present instead of Val.
The transport of polyvalent cations was monitored by difference absorbance measurements which detected formation of the Quin-2:cation complex within the vesicle lumen. An Aminco DW2a spectrophotometer operated in the dual wavelength mode was employed. In addition, an Oriel No. 59800 band pass filter was used between the cuvette and the beam scrambler-photomultiplier assembly to prevent detection of the fluorescent light emitted by Quin-2. The sample wavelength for all cations was 264 nm. The reference wavelengths were at an isosbestic point in the Quin-2/Quin-2:cation complex difference spectrum of interest. These wavelengths varied slightly from cation to cation, as previously described (Erdahl et al., 1996 Biochem. 35:13817). […]

Row | Compound | influence on activity of the transporter in yeast mitochondria [1] | Rate of increase in matrix Ca^2+ concentration [1] | % of Control [1] [%] | also measured
1 | N.N.N.N.N.N.N.N.N.N.N.N.N.N.[Cl-].[Cl-].[Cl-].[Cl-].[Cl-].[Cl-].[O-2].[O-2].[Ru+3].[Ru+3].[Ru+4] [Ruthenium red] | not influenced | 2.21 ± .23 nM/s | 113 | 
2 | coelenterazine n |  |  |  | luminescence intensity as aequorin cofactor vs parent coelenterazine (intact yeast): comparable to that of the parent
3 | O=C(O)CN(CCOCCOCCN(CC(=O)O)CC(=O)O)CC(=O)O [EGTA] |  |  |  | effect on the depression of ΔΨ produced by ETH 129 plus Ca2+ (yeast mitochondria): reversed
4 | CC(C)[C@@H]1NC(=O)[C@H](C)OC(=O)[C@@H](C(C)C)NC(=O)[C@@H](C(C)C)OC(=O)[C@H](C(C)C)NC(=O)[C@H](C)OC(=O)[C@@H](C(C)C)NC(=O)[C@@H](C(C)C)OC(=O)[C@H](C(C)C)NC(=O)[C@H](C)OC(=O)[C@@H](C(C)C)NC(=O)[C@@H](C(C)C)OC1=O [Valinomycin] | not influenced | 2.32 ± .31 nM/s | 118 | 
5 | C=C1[C@@H]2CC[C@H]3[C@]4(C)C[C@H](O[C@@H]5O[C@H](CO)[C@@H](OS(=O)(=O)O)[C@H](OS(=O)(=O)O)[C@H]5OC(=O)CC(C)C)CC(C(=O)O)(C(=O)O)[C@H]4CC[C@]3(C2)[C@H]1O [carboxyatractyloside] |  |  |  | effect on the depression of ΔΨ produced by ETH 129 plus Ca2+ (yeast mitochondria): no effect
6 | N#CC(C#N)=NNc1cccc(Cl)c1 [CCP, carbonyl cyanide m-chlorophenylhydrazone] |  |  |  | activation of ETH 129 mediated Ca2+ transport [2]: rate enhancement increasing progressively as the CCP concentration rose to 5 μM
7 | C[C@H](CCC(=O)O)C[C@H](C)C[C@H](C)C(=O)/C=C(\O)[C@H](C)C[C@H](C)C/C=C/[C@@H](C)[C@@H](O)[C@@H](C)[C@@H](O)C[C@@H]1CC[C@@](C)([C@H]2CC[C@@](C)([C@@H](C)O)O2)O1 [ionomycin] |  |  |  | effect on ΔΨ, ionophore together with Ca2+ (yeast mitochondria; BSA absent, CaCl2 plus ionophore, FIG. 11C): not duplicated
8 | CO[C@@H]1C[C@@H](C[C@H]2CC[C@H](C)[C@H]([C@@H](C)C(=O)O)O2)O[C@]2(O[C@](C)([C@H]3CC[C@@](C)([C@@H]4O[C@@H]([C@H]5O[C@@](O)(CO)[C@H](C)C[C@@H]5C)C[C@@H]4C)O3)C[C@H]2C)[C@@H]1C [Nigericin] | not influenced | 2.17 ± .12 nM/s | 111 | 
